In brackets after ≈: the same amount, converted by molar mass. Read-outs that look alike come from different tables or passages of the source.
How the values were obtained:
T. cruzi trypomastigotes = assay: Lysis of T. cruzi trypomastigotes (resazurin); type: cell-based, Trypanosoma cruzi Tulahuen strain C4; conditions: 24 h, half-maximal lysis
Method: (§1) Activity of pradimicin A (PRM-A) and S (PRM-S) against T. cruzi was studied in epimastigote and trypomastigote forms of T. cruzi Tulahuen strain C4.
(§2) In the case of epimastigote forms, 2×10^5 parasites were seeded in a 96-wells plate (100 μL) and incubated 3 days with different drug concentrations between 0.0625 μg·mL^−1 and 100 μg·mL^−1 in liver infusion tryptose (LIT) medium supplemented with 10% fetal calf serum at 28° C. In the case of trypomastigotes, 1×10^5 parasites were seeded in a 96-well plate (100 μL) and incubated with different drug concentrations between 0.006 μg·mL^−1 and 12.5 μg·mL^−1 for 24 h in RPMI 1640 medium supplemented with 10% FBS, 2 mM L-glutamine, 100 U·mL^−1 penicillin and 100 μg·mL^−1 streptomycin at 37° C. and 5% CO2. Cell viability of epimastigotes and lysis percentage of trypomastigotes were determined by adding 10 μL of resazurin (0.11 mg·mL^−1 in PBS) and measuring fluorescence at 570/590 nm of excitation/emission wavelength after 2 h of incubation using a Spectramax Gemini EM microplate fluorometer (Molecular Devices Cooperation, Sunnyvale, Calif., USA). EC50 or 50% lysis values were defined as the drug concentration required for half-maximal inhibition of the cellular growth rate or half-maximal lysis and were calculated by nonlinear regression analysis.

T. brucei BSF = assay: In vitro growth inhibition of T. brucei bloodstream forms; type: cell-based, Trypanosoma brucei brucei
Method: Trypanosoma brucei brucei single-marker bloodstream forms (BSF) (antigenic type 1.2, MITat 1.2, clone 221a) strain 427, harbouring T7 RNA polymerase and the tetracycline repressor (Wirtz et al., 1999) and Trypanosoma brucei rhodesiense EATRO3 ETat1.2 TREU164 (Turner et al., 2004) were used in this study. Bloodstream forms were cultured at 37° C. and 5% CO2 in HMI-9 supplemented with 10% (v/v) or 20% fetal bovine serum, respectively. The non-peptidic CBAs pradimicin A (PRM-A, derived from Actinomadura hibisca) (Oki et al., 1988) and pradimicin S (PRM-S, derived from Actinomadura spinosa strain A A08 51) (Saitoh et al., 1993) were tested for inhibition of parasite growth.

T. cruzi epimastigotes = assay: In vitro activity against T. cruzi epimastigotes (resazurin viability); type: cell-based, Trypanosoma cruzi Tulahuen strain C4; conditions: 3 days
Method: as §1, §2

Macrophages = assay: Toxicity in macrophages; type: cell-based, mouse
L. donovani amastigotes = assay: In vitro activity against intracellular L. donovani amastigotes in mouse peritoneal macrophages; type: cell-based, Leishmania donovani MHOM/ET/67HU3; conditions: 72 h
Method: (§3) Activity of pradimicin A (PRM-A) and S (PRM-S) was tested against promastigote and amastigote forms of L. donovani MHOM/ET/67HU3.
To determine activity against the amastigote form, 1×10^5 mouse peritoneal macrophages were seeded in 24-well tissue culture chamber slides using RPMI 1640 medium supplemented with 10% HIFBS, 2 mM L-glutamine, 100 U·mL-1 penicillin and 100 μg·mL^−1 streptomycin. Compounds were added and cells were then infected with late-stage promastigotes at a macrophage/parasite ratio of 1:10. After 8 h of infection at 35° C. and 5% CO2, extracellular parasites were removed by washing with serum-free medium, and infected macrophage cultures were incubated with different CBA concentrations for 72 h in RPMI 1640 medium plus 10% HIFBS at 37° C. with 5% CO2. After that, macrophages were fixed with 2.5% p-formaldehyde in PBS for 30 min at 4° C., permeabilized with 0.1% Triton X-100 in PBS for 30 min, and incubated with Gold antifade reagent plus DAPI in order to detect the intracellular parasites. Drug activity was determined from the percentage of infected cells and from the number of amastigotes per cell in drug-treated versus non-treated cultures.

[1] = tested on: L. donovani promastigotes; assay: In vitro activity against L. donovani promastigotes (proliferation, cell counting); type: cell-based, Leishmania donovani MHOM/ET/67HU3; conditions: 48 h
Method: as §3
In the case of the promastigote forms, 2.5×10^4 parasites were incubated in 24-well plates (1 mL) for 48 h at different drug concentrations between 0.391 μg·mL^−1 and 50 μg·mL^−1 in RPMI 1640 modified supplemented with 20% FBS, 2 mM L-glutamine, 100 U·mL^−1 penicillin and 100 μg·mL^−1 of streptomycin. The proliferation was determined by counting the number of cells using a Z1 Coulter counter. EC50 values were calculated by nonlinear regression analysis.

T. b. rhodesiense EATRO3 = assay: In vivo activity of PRM-S in BALB/c mice infected with T. b. rhodesiense EATRO3; conditions: for MRD (mean relapse day) / MSD (mean survival day) / cured/infected: BALB/c; for cured/infected: from day 3 post-infection
Source text: (§4) In order to establish the trypanocidal capacity of PRM-S, C57BL/6J or BALB/c mice were infected with T. b. brucei 427 or T. b. rhodesiense EATRO3 strains, respectively, and infection was allowed to proceed for 3 days before treatment with PRM-S, one dosage per day for 4 days.
(§5) Female C57BL/6 or BALB/c mice (Jackson Laboratories, Bar Harbor, Me.) were split in groups containing between three and six mice (6-8 weeks old), and infected via intraperitoneal route with 5×10^3 (T. b. brucei strain 427) or 1×10^4 (T. b. rhodesiense EATRO3) trypanosomes, respectively. Different dosages of PRM-S ([…] and 50 mg·kg^−1) were administered once/day intraperitoneally (200 μL) for 4 days starting on the third day post-infection, in 0.5% w/v hydroxypropylmethylcellulose (HPMC), 0.4% v/v Tween 80 and 0.5% v/v benzyl alcohol used as dosage formulation. One group of mice in each case was also infected and treated with the vehicle as control, Parasitaemia was monitored daily in a haematocytometer under a microscope from the third day post-infection and after tail blood extraction.

T. b. brucei 427 = assay: In vivo activity of PRM-S in C57BL/6J mice infected with T. b. brucei 427; conditions: for MRD (mean relapse day) / MSD (mean survival day) / cured/infected: C57BL/6J; for cured/infected: from day 3 post-infection
Source text: as §4, §5

[2] = read-out: EC50 (% Lysis) T. cruzi
[3] = 4 × 25 mg·kg^−1 i.p., listed as PRMS
[4] = 4 × 50 mg·kg^−1 i.p., listed as PRMS

| Compound | EC50 (T. brucei BSF) | EC50 (μg · mL^−1) (T. brucei BSF) | EC50 (T. cruzi epimastigotes) | EC50 (μg · mL^−1) (T. cruzi epimastigotes) | EC50 (Macrophages) | EC50 (μg · mL^−1) (Macrophages) | EC50 (% Lysis) T. cruzi (T. cruzi trypomastigotes) | EC50 (T. cruzi trypomastigotes; [2]) | EC50 (L. donovani amastigotes) | EC50 (μg · mL^−1) (L. donovani amastigotes) | EC50 [1] | EC50 (μg · mL^−1) [1] | also measured |
| --- | --- | --- | --- | --- | --- | --- | --- | --- | --- | --- | --- | --- | --- |
| O=C(Cn1ccnc1[N+](=O)[O-])NCc1ccccc1 [Benznidazole, reference compound] |  |  |  |  |  |  |  |  |  |  |  |  | EC50 (T. cruzi trypomastigotes; Trypanosoma cruzi, read-out: EC50 (% Lysis) T. cruzi): 5.2 ± 0.2 µM; EC50 (T. cruzi trypomastigotes; Trypanosoma cruzi, read-out: EC50 (% Lysis) T. cruzi (μg · mL^−1)): 1.35 ± 0.05 µg/mL |
| CN[C@@H]1[C@H](O[C@@H]2OC[C@@H](O)[C@H](O)[C@H]2O)[C@@H](O)[C@H](O[C@H]2c3cc(C)c(C(=O)N[C@H](C)C(=O)O)c(O)c3-c3c(cc4c(c3O)C(=O)c3cc(OC)cc(O)c3C4=O)[C@@H]2O)O[C@@H]1C [PRM-A, pradimicin A] | 3.8 ± 0.05 µM | 3.20 ± 0.04 µg/mL (≈ 3.81 µM) | 28.1 ± 1.3 µM | 23.6 ± 1.1 µg/mL (≈ 28.1 µM) | > 100 µM | >100 µg/mL | 1.0 ± 0.3 µg/mL (≈ 1.19 µM) | 1.2 ± 0.3 µM | 0.8 ± 0.1 µM | 0.7 ± 0.1 µg/mL (≈ 0.833 µM) | 21.4 ± 0.8 µM | 18.0 ± 0.7 µg/mL (≈ 21.4 µM) |  |
| CN[C@@H]1[C@H](O[C@@H]2O[C@H](CO)[C@@H](O)[C@H](OS(=O)(=O)O)[C@H]2O)[C@@H](O)[C@H](O[C@@H]2c3cc(C)c(C(=O)N[C@H](CO)C(=O)O)c(O)c3-c3c(cc4c(c3O)C(=O)c3cc(OC)cc(O)c3C4=O)[C@H]2O)O[C@@H]1C [PRM-FS, Pradimicin-FS] | 13.5 ± 0.8 µM | 13.0 ± 0.7 µg/mL (≈ 13.4 µM) |  |  |  |  |  |  |  |  | 50.8 ± 2.1 µM | 49.1 ± 2.0 µg/mL (≈ 50.8 µM) |  |
| CN[C@@H]1[C@H](O[C@@H]2O[C@H](CO)[C@@H](O)[C@H](OS(=O)(=O)O)[C@H]2O)[C@@H](O)[C@H](O[C@H]2c3cc(C)c(C(=O)N[C@H](C)C(=O)O)c(O)c3-c3c(cc4c(c3O)C(=O)c3cc(OC)cc(O)c3C4=O)[C@@H]2O)O[C@@H]1C [PRM-S, pradimicin S] | 6.44 ± 0.08 µM | 5.85 ± 0.08 µg/mL (≈ 6.15 µM) | 19 ± 2.6 µM | 17.3 ± 2.4 µg/mL (≈ 18.2 µM) | > 100 µM | >100 µg/mL | 1.2 ± 0.3 µg/mL (≈ 1.26 µM) | 1.4 ± 0.3 µM | 2.3 ± 0.3 µM | 2.2 ± 0.2 µg/mL (≈ 2.31 µM) | 22.9 ± 1.9 µM | 21.8 ± 1.9 µg/mL (≈ 22.9 µM) | mice in which parasitaemia appeared subsequently (relapse) (T. b. rhodesiense EATRO3; 25 mg·kg^−1): three of the five mice; MRD (mean relapse day) (T. b. rhodesiense EATRO3; 4 × 25 mg·kg^−1 i.p.): 10.7 ± 0.6 days; MSD (mean survival day) (T. b. rhodesiense EATRO3; 4 × 25 mg·kg^−1 i.p.): 44.4 ± 41.7 days; MRD (mean relapse day) (T. b. rhodesiense EATRO3; [3]): 10.7 ± 0.6 days; MSD (mean survival day) (T. b. rhodesiense EATRO3; [3]): 44.4 ± 41.7 days; cured/infected (T. b. rhodesiense EATRO3; 4 × 25 mg·kg^−1 i.p.): 2/5; MSD (mean survival day) (T. b. rhodesiense EATRO3; 4 × 50 mg·kg^−1 i.p.): > 90 days; MSD (mean survival day) (T. b. rhodesiense EATRO3; [4]): >90 days; cured/infected (T. b. rhodesiense EATRO3; 4 × 50 mg·kg^−1 i.p.): 5/5; parasitaemia (T. b. rhodesiense EATRO3; both dosages (25 and 50 mg·kg^−1), after the first administration): drastically reduced; MRD (mean relapse day) (T. b. brucei 427; 4 × 25 mg·kg^−1 i.p.): 10.7 ± 0.6 days; MSD (mean survival day) (T. b. brucei 427; 4 × 25 mg·kg^−1 i.p.): 18.0 ± 7 days; MRD (mean relapse day) (T. b. brucei 427; [3]): 10.7 ± 0.6 days; MSD (mean survival day) (T. b. brucei 427; [3]): 18.0 ± 7 days; cured/infected (T. b. brucei 427; 4 × 25 mg·kg^−1 i.p.): 0/3; MSD (mean survival day) (T. b. brucei 427; 4 × 50 mg·kg^−1 i.p.): > 90 days; MSD (mean survival day) (T. b. brucei 427; [4]): >90 days; cured/infected (T. b. brucei 427; 4 × 50 mg·kg^−1 i.p.): 6/6; parasitaemia (T. b. brucei 427; after the first dose of 50 mg·kg^−1): dramatic decrease of parasitaemia; parasitaemia (T. b. brucei 427; after the third dose of 25 mg·kg^−1): dramatic decrease of parasitaemia |
